Assay results taken from patent US8492347B2, “Peptide for induction of immune tolerance as treatment for systemic lupus erythematosus” (The Regents of the University of California, priority 2007, dated 2013).
Where two headings read alike, the source gives them in different places. Where no end group is shown, it is not given here. [ ]: non-standard residue; d: D form.

Assays:
BWF1 mice [1] = experiment: FACS of CD8+ Foxp3+ T cells in mesenteric nodes and spleen after peptide gavage; assay type: in vivo
Method: Lastly, we synthesized the D-form of pCons, for the purpose of administering it orally since D-forms are resistant to acid degradation. […] Specifically, studies have been completed in which BWF1 mice were fed 5 days a week out of every 30 days saline, low dose pCons (25 ug), middle dose (100 ug) or high dose (250 ug) by gavage. Both D and L-forms are being studied. Most of those mice were sacrificed to study characteristics of cells in mesenteric lymph nodes and spleens. Observations from these studies are disclosed in the following paragraphs.
First, we observed that CD8+ T cells that express Foxp3 (known to be inhibitory T cells for SLE) were induced in mesenteric nodes and spleen cells by the highest dose (250 ug) of D-peptide and by the middle dose (100 ug) and high dose of L-peptide. Thus the administration of low/middle dose D-peptide and of low dose L-peptide was not effective. Data were obtained by FACS analysis of total node populations, with percent of CD8+ Foxp3+ cells in untreated mice <1%, compared to 3-6% of total CD8+ cells in the effective doses of peptide. These changes are high enough to be clinically significant according to our earlier data with L-peptide given i.v.

[2] = test system: peripheral blood mononuclear cells from patients with SLE; experiment: expansion of CD4+ CD25hi T cells in SLE patient cells cultured with peptide for 5 days; assay type: cell-based, human; conditions: for expansion of CD4+ CD25hi (Foxp3+) regulatory T cell populations: SLE patient cells in culture, 5 days
Method: In these experiments, pCons and other stimulatory (peptides B and D) peptides and non-stimulatory peptides (peptide A) that are wild peptides from human monoclonal antibodies to DNA were incubated with peripheral blood mononuclear cells from patients with SLE.
In FIGS. 6 and 7, we show data on the ability of L-pCons to mature the CD4+ CD25hiFoxp3+ natural regulatory cells in patients with SLE. In these experiments, pCons and other stimulatory (peptides B and D) peptides and non-stimulatory peptides (peptide A) that are wild peptides from human monoclonal antibodies to DNA were incubated with peripheral blood mononuclear cells from patients with SLE. […] Such cells are thought to be regulatory T cells.
(§1) Next, we studied the ability of L-pCons to induce Treg in T cells from the peripheral blood of patients with SLE (36 patients, 32 healthy controls). Stimulatory control peptides B and D are wild peptides from human mAb anti-DNA; peptide A is a nonstimulatory negative control (see, e.g. Kaki et al., Lupus 2004; 13:490-500). […] These expanded cells were regulatory (FIG. 8): they suppressed proliferation and IFNg synthesis by autologous CD4+ CD25− cells in culture. Numbers of CD4+ Foxp3+ T cells were also expanded and silencing of Foxp3 by transfection with specific siRNA for Foxp3 abrogated the suppressive capacity of the induced T reg by ½ (3rd panel, FIG. 8). […] Patients who were anti-DNA negative were unlikely to respond to pCons with expansion of Treg (see, e.g. La Cava et al, Lupus. 2008; 17(5):421-5).

CD4+ CD25− T cells = experiment: suppression of autologous CD4+ CD25− T cells by pCons-induced Treg; assay type: cell-based, human; conditions: 1:1 ratios
Description: T cells were also expanded and silencing of Foxp3 by transfection with specific siRNA for Foxp3 abrogated the suppressive capacity of the induced T reg by ½ (3rd panel, FIG. 8).
as §1

BWF1 mice [3] = conditions: cited from earlier work
[4] = high dose i.v. tolerogen once a month, BWF1 females

Sequence	induction of CD8+ T cells that express Foxp3 (BWF1 mice [1]; low dose 25 ug by gavage)	induction of CD8+ T cells that express Foxp3 (BWF1 mice [1]; middle dose 100 ug by gavage)	patients showing expansion of CD4+ CD25hi cells to more than the usual 2-3% of peripheral blood MNC ([2]; 5 days in culture)	expansion of CD4+ CD25hi (Foxp3+) regulatory T cell populations [2]	expansion of CD4+ CD25hi (Foxp3+) regulatory T cell populations ([2]; listed as pCons)	effect of peptide-induced Treg on CD4+ CD25− T cells (CD4+ CD25− T cells)	appearance of anti-DNA, anti-phospholipid, and proteinuria (BWF1 mice [3]; [4])	prolongation of survival (BWF1 mice [3]; [4])	prolongs survival (BWF1 mice [3]; started after nephritis and anti-DNA antibodies have appeared)	prolongs survival (BWF1 mice [3]; started prior to disease onset)
FIEWNKLRFRQGLEW ([dF][dI][dE][dW][dN][dK][dL][dR][dF][dR][dQ]G[dL][dE][dW]) [D-pCons]	not effective	not effective								
FIEWNKLRFRQGLEW [L-pCons]			Thirteen of 23	expand significantly	expanded CD4+ CD25hi populations in some patients	suppress proliferation and IFNg production	significant delay	24 week	3-4 months	4-5 months
